From US20180148418A1, “AMIDO-SUBSTITUTED CYCLOHEXANE DERIVATIVES” (Bayer Pharma Aktiengesellschaft, priority 2015, published 2018)

molecular target: T1, TNKS1 (Homo sapiens, UniProt O95271); experiment: TNKS1 Assay B (auto-parsylation, [3H]-NAD+ SPA); format: biochemical; conditions: 6 nM TNKS1, auto-parsylation, over night at room temperature
T1 construct: purchased BPS Bioscience, San Diego, USA 80579 (TNKS1 Histone Ribosylation Assay Kit)
T1 sequence (O95271 1-1327): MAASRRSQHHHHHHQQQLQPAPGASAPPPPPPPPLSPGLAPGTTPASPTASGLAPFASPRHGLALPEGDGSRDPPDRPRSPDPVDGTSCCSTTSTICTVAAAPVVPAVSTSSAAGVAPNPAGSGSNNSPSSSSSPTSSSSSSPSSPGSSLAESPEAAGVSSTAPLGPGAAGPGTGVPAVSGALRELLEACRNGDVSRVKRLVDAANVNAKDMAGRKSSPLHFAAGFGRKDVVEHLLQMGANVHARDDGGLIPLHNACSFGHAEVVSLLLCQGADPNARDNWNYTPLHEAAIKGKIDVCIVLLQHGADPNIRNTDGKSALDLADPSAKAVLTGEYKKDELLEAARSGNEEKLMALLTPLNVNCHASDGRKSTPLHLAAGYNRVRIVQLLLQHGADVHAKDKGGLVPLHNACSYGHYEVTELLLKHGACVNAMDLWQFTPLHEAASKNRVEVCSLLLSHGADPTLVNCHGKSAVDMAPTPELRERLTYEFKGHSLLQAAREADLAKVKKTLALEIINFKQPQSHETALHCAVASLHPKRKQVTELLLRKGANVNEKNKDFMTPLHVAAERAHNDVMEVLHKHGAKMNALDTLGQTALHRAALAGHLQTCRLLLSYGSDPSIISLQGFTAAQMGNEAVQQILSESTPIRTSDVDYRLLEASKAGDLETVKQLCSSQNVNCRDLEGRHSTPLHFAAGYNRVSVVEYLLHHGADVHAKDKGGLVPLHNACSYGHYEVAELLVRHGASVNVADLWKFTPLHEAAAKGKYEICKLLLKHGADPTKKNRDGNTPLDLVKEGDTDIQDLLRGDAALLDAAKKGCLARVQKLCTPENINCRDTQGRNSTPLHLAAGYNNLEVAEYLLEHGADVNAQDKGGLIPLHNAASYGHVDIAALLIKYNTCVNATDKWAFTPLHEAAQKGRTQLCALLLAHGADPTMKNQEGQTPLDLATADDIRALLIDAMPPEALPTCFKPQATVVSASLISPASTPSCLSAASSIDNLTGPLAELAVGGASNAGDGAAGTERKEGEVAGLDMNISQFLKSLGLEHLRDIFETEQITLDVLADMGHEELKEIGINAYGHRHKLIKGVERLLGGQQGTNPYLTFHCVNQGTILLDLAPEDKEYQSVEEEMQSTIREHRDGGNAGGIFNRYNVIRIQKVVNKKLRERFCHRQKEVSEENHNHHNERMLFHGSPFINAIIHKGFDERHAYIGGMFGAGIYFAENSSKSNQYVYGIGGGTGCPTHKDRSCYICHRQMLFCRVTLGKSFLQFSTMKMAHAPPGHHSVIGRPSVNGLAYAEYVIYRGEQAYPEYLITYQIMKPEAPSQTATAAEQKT

Q: `O=C(NC1CCC2(CC1)CCN(c1cc(F)c(F)cc1Cl)C2=O)c1cnn2cccnc12` (single isomer, unassigned; isomer 1) [Example 168, N-[2-(2-chloro-4,5-difluorophenyl)-1-oxo-2-azaspiro[4.5]dec-8-yl]pyrazolo[1,5-a]pyrimidine-3-carboxamide (isomer 1)] was tested. Which IC50 did it give?
A: The IC50 was 7.3 nM.

Q: For `CNC(=O)c1nc[nH]c1C(=O)N[C@H]1CC[C@H](C(=O)Nc2cccnc2Cl)CC1` [Example 10, N^5-{trans-4-[(2-chloropyridin-3-yl)carbamoyl]cyclohexyl}-N^4-methyl-1H-imidazole-4,5-dicarboxamide], which IC50 is on record?
A: Its IC50 is 250 nM.

Q: `CNC(=O)c1nc[nH]c1C(=O)N[C@H]1CC[C@H](C(=O)Nc2ccncc2Cl)CC1` [Example 11, N^5-{trans-4-[(3-chloropyridin-4-yl)carbamoyl]cyclohexyl}-N^4-methyl-1H-imidazole-4,5-dicarboxamide] was tested. Which IC50 did it give?
A: Its IC50 is 260 nM.

Q: How did the IC50 turn out when `CC1CCN(CCNC(=O)c2nc[nH]c2C(=O)N[C@H]2CC[C@H](C(=O)Nc3ccc(F)cc3Cl)CC2)CC1` [Example 12, N^5-{trans-4-[(2-chloro-4-fluorophenyl)carbamoyl]cyclohexyl}-N^4-[2-(4-methylpiperidin-1-yl)ethyl]-1H-imidazole-4,5-dicarboxamide] was run?
A: The IC50 was 3.7 nM.

Q: With `O=C(NCCN1CCOCC1)c1nc[nH]c1C(=O)N[C@H]1CC[C@H](C(=O)Nc2ccc(F)cc2Cl)CC1` [Example 13, N^5-{trans-4-[(2-chloro-4-fluorophenyl)carbamoyl]cyclohexyl}-N^4-[2-(morpholin-4-yl)ethyl]-1H-imidazole-4,5-dicarboxamide] as the molecule, how does the IC50 read?
A: The IC50 was 10 nM.

Q: `O=C(N[C@H]1CC[C@H](C(=O)Nc2ccc(F)cc2Cl)CC1)c1[nH]cnc1C(=O)N1CC2(COC2)C1` [Example 14, N-{trans-4-[(2-chloro-4-fluorophenyl)carbamoyl]cyclohexyl}-4-(2-oxa-6-azaspiro[3.3]hept-6-ylcarbonyl)-1H-imidazole-5-carboxamide] was tested. Which IC50 did it give?
A: Its IC50 is 63 nM.

Q: How did the IC50 turn out when `CCNC(=O)c1nc[nH]c1C(=O)N[C@H]1CC[C@H](C(=O)Nc2ccc(F)cc2Cl)CC1` [Example 15, N^5-{trans-4-[(2-chloro-4-fluorophenyl)carbamoyl]cyclohexyl}-N^4-ethyl-1H-imidazole-4,5-dicarboxamide] was run?
A: Its IC50 is 52 nM.

Q: With `CN(C)C(=O)c1nc[nH]c1C(=O)N[C@H]1CC[C@H](C(=O)Nc2ccc(F)cc2Cl)CC1` [Example 16, N^5-{trans-4-[(2-chloro-4-fluorophenyl)carbamoyl]cyclohexyl}-N^4,N^4-dimethyl-1H-imidazole-4,5-dicarboxamide] as the molecule, how does the IC50 read?
A: The IC50 was 1100 nM.

Q: Which IC50 does the source give for `O=C(NC1CC1)c1nc[nH]c1C(=O)N[C@H]1CC[C@H](C(=O)Nc2ccc(F)cc2Cl)CC1` [Example 17, N^5-{trans-4-[(2-chloro-4-fluorophenyl)carbamoyl]cyclohexyl}-N^4-cyclopropyl-1H-imidazole-4,5-dicarboxamide] here?
A: The IC50 was 84 nM.

Q: For `O=C(NCCO)c1nc[nH]c1C(=O)N[C@H]1CC[C@H](C(=O)Nc2ccc(F)cc2Cl)CC1` [Example 18, N^5-{trans-4-[(2-chloro-4-fluorophenyl)carbamoyl]cyclohexyl}-N^4-(2-hydroxyethyl)-1H-imidazole-4,5-dicarboxamide], which IC50 is on record?
A: Its IC50 is 94 nM.

Q: Which IC50 does the source give for `COCCNC(=O)c1nc[nH]c1C(=O)N[C@H]1CC[C@H](C(=O)Nc2ccc(F)cc2Cl)CC1` [Example 19, N^5-{trans-4-[(2-chloro-4-fluorophenyl)carbamoyl]cyclohexyl}-N^4-(2-methoxyethyl)-1H-imidazole-4,5-dicarboxamide] here?
A: Its IC50 is 120 nM.

Q: For `CC(C)NC(=O)c1nc[nH]c1C(=O)N[C@H]1CC[C@H](C(=O)Nc2ccc(F)cc2Cl)CC1` [Example 20, N^5-{trans-4-[(2-chloro-4-fluorophenyl)carbamoyl]cyclohexyl}-N^4-isopropyl-1H-imidazole-4,5-dicarboxamide], which IC50 is on record?
A: The IC50 was 90 nM.

Q: `O=C(NCC(F)(F)F)c1nc[nH]c1C(=O)N[C@H]1CC[C@H](C(=O)Nc2ccc(F)cc2Cl)CC1` [Example 21, N^5-{trans-4-[(2-chloro-4-fluorophenyl)carbamoyl]cyclohexyl}-N^4-(2,2,2-trifluoroethyl)-1H-imidazole-4,5-dicarboxamide] was tested. Which IC50 did it give?
A: The IC50 was 37 nM.

Q: How did the IC50 turn out when `O=C(N[C@H]1CC[C@@]2(CCN(c3ccc(F)cc3Cl)C2=O)CC1)c1[nH]cnc1C(=O)N1CCN(CC(F)(F)F)CC1` [Example 167, N-[(trans)-2-(2-chloro-4-fluorophenyl)-1-oxo-2-azaspiro[4.5]dec-8-yl]-4-{[4-(2,2,2-trifluoroethyl)piperazin-1-yl]carbonyl}-1H-imidazole-5-carboxamide] was run?
A: Its IC50 is 660 nM.

Q: For `Cc1cc(C)n2ncc(C(=O)N[C@H]3CC[C@H](C(=O)Nc4cnccc4Cl)CC3)c2n1` [Example 169, N-{trans-4-[(4-chloropyridin-3-yl)carbamoyl]cyclohexyl}-5,7-dimethylpyrazolo[1,5-a]pyrimidine-3-carboxamide], which IC50 is on record?
A: The IC50 was 35 nM.

Q: How did the IC50 turn out when `CNC(=O)c1nc[nH]c1C(=O)N[C@H]1CC[C@H](C(=O)Nc2cc(C(C)(C)O)ccc2Cl)CC1` [Example 170, N^5-(trans-4-{[2-chloro-5-(2-hydroxypropan-2-yl)phenyl]carbamoyl}cyclohexyl)-N^4-methyl-1H-imidazole-4,5-dicarboxamide] was run?
A: The IC50 was 2400 nM.

Q: Which IC50 does the source give for `CNC(=O)c1nc[nH]c1C(=O)N[C@H]1CC[C@H](C(=O)N(C)c2ccccc2)CC1` [Example 171, N^4-methyl-N^5-{trans-4-[methyl(phenyl)carbamoyl]cyclohexyl}-1H-imidazole-4,5-dicarboxamide] here?
A: Its IC50 is 400 nM.

Q: For `CNC(=O)c1nc[nH]c1C(=O)N[C@H]1CC[C@H](C(=O)N(C)c2ccc(F)cc2)CC1` [Example 172, N^5-{trans-4-[(4-fluorophenyl)(methyl)carbamoyl]cyclohexyl}-N^4-methyl-1H-imidazole-4,5-dicarboxamide], which IC50 is on record?
A: Its IC50 is 980 nM.

Q: For `CNC(=O)c1nc[nH]c1C(=O)N[C@H]1CC[C@H](C(=O)N(C)c2ccc(F)cc2Cl)CC1` [Example 173, N^5-{trans-4-[(2-chloro-4-fluorophenyl)(methyl)carbamoyl]cyclohexyl}-N^4-methyl-1H-imidazole-4,5-dicarboxamide], which IC50 is on record?
A: The IC50 was 200 nM.

Q: How did the IC50 turn out when `Cc1cc(N(C)C(=O)[C@H]2CC[C@H](NC(=O)c3cnn4cccnc34)CC2)c(Cl)cc1F` [Example 176, N-{trans-4-[(2-chloro-4-fluoro-5-methylphenyl)(methyl)carbamoyl]cyclohexyl}pyrazolo[1,5-a]pyrimidine-3-carboxamide] was run?
A: Its IC50 is 160 nM.

Q: With `O=C(N[C@H]1CC[C@H](C(=O)N(CC2CC2)c2ccc(F)cc2Cl)CC1)c1cnn2cccnc12` [Example 177, N-{trans-4-[(2-chloro-4-fluorophenyl)(cyclopropylmethyl)carbamoyl]cyclohexyl}pyrazolo[1,5-a]pyrimidine-3-carboxamide] as the molecule, how does the IC50 read?
A: Its IC50 is 13 nM.

Q: `Cc1ccccc1N(C)C(=O)[C@H]1CC[C@H](NC(=O)c2cnn3cccnc23)CC1` [Example 178, N-{trans-4-[methyl(2-methylphenyl)carbamoyl]cyclohexyl}pyrazolo[1,5-a]pyrimidine-3-carboxamide] was tested. Which IC50 did it give?
A: Its IC50 is 330 nM.

Q: `C[C@]1(C(=O)Nc2ccc(F)cc2Cl)CC[C@H](NC(=O)c2cnn3cccnc23)CC1` [Example 179, N-{trans-4-[(2-chloro-4-fluorophenyl)carbamoyl]-4-methylcyclohexyl}pyrazolo[1,5-a]pyrimidine-3-carboxamide] was tested. Which IC50 did it give?
A: The IC50 was 970 nM.

Q: With `C[C@]1(C(=O)Nc2ccc(F)cc2Cl)CC[C@@H](NC(=O)c2cnn3cccnc23)CC1` [Example 180, N-{cis-4-[(2-chloro-4-fluorophenyl)carbamoyl]-4-methylcyclohexyl}pyrazolo[1,5-a]pyrimidine-3-carboxamide] as the molecule, how does the IC50 read?
A: Its IC50 is greater than 10000 nM.

Q: Which IC50 does the source give for `CNC(=O)c1[nH]cnc1C(=O)N[C@H]1CC[C@@](C)(C(=O)Nc2ccc(F)cc2Cl)CC1` [Example 181, N^4-{cis-4-[(2-chloro-4-fluorophenyl)carbamoyl]-4-methylcyclohexyl}-N^5-methyl-1H-imidazole-4,5-dicarboxamide] here?
A: The IC50 was greater than 10000 nM.

Q: `CNC(=O)c1nc[nH]c1C(=O)N[C@H]1CC[C@]2(CCN(c3ccc(F)cc3Cl)C2=O)CC1` [Example 182, N^5-[(cis)-2-(2-chloro-4-fluorophenyl)-1-oxo-2-azaspiro[4.5]dec-8-yl]-N^4-methyl-1H-imidazole-4,5-dicarboxamide] was tested. Which IC50 did it give?
A: The IC50 was 2200 nM.
